Test results as given in ChEMBL document CHEMBL3797134, “Selectivity of 3-bromo-isoxazoline inhibitors between human and Plasmodium falciparum glyceraldehyde-3-phosphate dehydrogenases” (Bioorg Med Chem, 2016).
Activity calls are given as the source filed them. The calls are words filed in the database; no cut-off is given here.

Tests used:
[1] = target: Glyceraldehyde-3-phosphate dehydrogenase (Plasmodium falciparum) (UniProt Q8T6B1); experiment: Slow phase inhibition of recombinant His-tagged Plasmodium falciparum GAPDH expressed in Escherichia coli using sodium arseniate as substrate assessed as ratio of Kinact to Ki by Kitz-Wilson double reciprocal plot analysis
Sequence of Glyceraldehyde-3-phosphate dehydrogenase (Plasmodium falciparum) (Q8T6B1 as listed by the source): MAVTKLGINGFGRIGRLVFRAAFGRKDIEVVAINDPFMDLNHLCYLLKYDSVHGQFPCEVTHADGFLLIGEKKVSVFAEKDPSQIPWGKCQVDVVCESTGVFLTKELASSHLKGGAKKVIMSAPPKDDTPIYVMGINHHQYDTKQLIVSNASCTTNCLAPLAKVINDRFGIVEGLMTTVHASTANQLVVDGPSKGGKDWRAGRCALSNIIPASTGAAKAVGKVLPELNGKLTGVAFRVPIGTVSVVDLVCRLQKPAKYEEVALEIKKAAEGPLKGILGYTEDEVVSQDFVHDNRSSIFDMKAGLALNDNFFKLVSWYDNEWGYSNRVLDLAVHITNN

[2] = target: Glyceraldehyde-3-phosphate dehydrogenase (Homo sapiens) (UniProt P04406); experiment: Binding affinity to recombinant N-terminal His-tagged human GAPDH expressed in Escherichia coli BL21 codonPlus (DE3)-RIL cells assessed as decrease in reactive cysteine content at 50 uM after 4 hrs relative to control; set-up: scale not given: the % may be the effect or the level left
Sequence of Glyceraldehyde-3-phosphate dehydrogenase (Homo sapiens) (P04406 2-335 limits assumed): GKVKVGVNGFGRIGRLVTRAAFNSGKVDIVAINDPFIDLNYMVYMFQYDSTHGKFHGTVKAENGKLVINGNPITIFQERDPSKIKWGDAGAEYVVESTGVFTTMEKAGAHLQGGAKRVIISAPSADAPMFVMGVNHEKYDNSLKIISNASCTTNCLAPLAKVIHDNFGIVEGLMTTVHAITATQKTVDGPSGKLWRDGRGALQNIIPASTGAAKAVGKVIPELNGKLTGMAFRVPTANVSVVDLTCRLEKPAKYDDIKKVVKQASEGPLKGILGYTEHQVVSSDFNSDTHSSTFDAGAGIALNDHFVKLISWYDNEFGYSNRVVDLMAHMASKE

[3] = target: Glyceraldehyde-3-phosphate dehydrogenase (Plasmodium falciparum) (UniProt Q8T6B1); experiment: Inhibition of recombinant His-tagged Plasmodium falciparum GAPDH expressed in Escherichia coli using sodium arseniate as substrate at 50 to 300 uM
[4] = target: Glyceraldehyde-3-phosphate dehydrogenase (Homo sapiens) (UniProt P04406); experiment: Effect on dimer to tetramer equilibrium of recombinant N-terminal His-tagged human GAPDH expressed in Escherichia coli BL21 codonPlus (DE3)-RIL cells at 50 uM after 4 hrs by gel filtration method
[5] = target: Glyceraldehyde-3-phosphate dehydrogenase (Homo sapiens) (UniProt P04406); experiment: Binding affinity to recombinant N-terminal His-tagged human GAPDH expressed in Escherichia coli BL21 codonPlus (DE3)-RIL cells assessed as remaining cysteine pKa at 300 uM after 4 hrs (reference value: 6)
[6] = target: Glyceraldehyde-3-phosphate dehydrogenase (Homo sapiens) (UniProt P04406); experiment: Fast phase inhibition of recombinant N-terminal His-tagged human GAPDH expressed in Escherichia coli BL21 codonPlus (DE3)-RIL cells using sodium arseniate as substrate assessed as ratio of Kinact to Ki by Kitz-Wilson double reciprocal plot analysis
[7] = target: Glyceraldehyde-3-phosphate dehydrogenase (Plasmodium falciparum) (UniProt Q8T6B1); experiment: Fast phase inhibition of recombinant His-tagged Plasmodium falciparum GAPDH expressed in Escherichia coli using sodium arseniate as substrate assessed as ratio of Kinact to Ki by Kitz-Wilson double reciprocal plot analysis
[8] = target: Glyceraldehyde-3-phosphate dehydrogenase (Homo sapiens) (UniProt P04406); experiment: Inhibition of recombinant N-terminal His-tagged human GAPDH expressed in Escherichia coli BL21 codonPlus (DE3)-RIL cells using sodium arseniate as substrate at 10 to 300 uM
[9] = tested on: COc1ccc(C2CC(Br)=NO2)cc1; experiment: Binding affinity to recombinant N-terminal His-tagged human GAPDH expressed in Escherichia coli BL21 codonPlus (DE3)-RIL cells assessed as enzyme Vmax at 50 uM after 4 hrs by Michaelis-Menten plot analysis (reference value: 0.069 +/- 0.003 mM/min)
[10] = tested on: COc1ccc(C2CC(Br)=NO2)cc1; experiment: Binding affinity to recombinant N-terminal His-tagged human GAPDH expressed in Escherichia coli BL21 codonPlus (DE3)-RIL cells assessed as enzyme Km at 50 uM after 4 hrs by Michaelis-Menten plot analysis (reference value: 340+/- 5 uM)

Sequence of Glyceraldehyde-3-phosphate dehydrogenase (Homo sapiens), P04406 (P04406 whole entry): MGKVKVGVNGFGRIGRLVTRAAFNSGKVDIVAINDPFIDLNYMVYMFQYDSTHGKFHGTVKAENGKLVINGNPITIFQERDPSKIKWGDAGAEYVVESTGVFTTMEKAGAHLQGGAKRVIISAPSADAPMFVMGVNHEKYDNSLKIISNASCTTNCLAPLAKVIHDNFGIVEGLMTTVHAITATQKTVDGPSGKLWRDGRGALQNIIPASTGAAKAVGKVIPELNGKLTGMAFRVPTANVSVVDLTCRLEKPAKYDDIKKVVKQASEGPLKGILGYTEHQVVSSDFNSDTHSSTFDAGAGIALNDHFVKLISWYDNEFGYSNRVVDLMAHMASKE

| Ratio [1] [s⁻¹ M⁻¹] | Activity [2] [%] | inhibition [3] [%] | Activity [4] | pKa [5] | Ratio [6] [s⁻¹ M⁻¹] | Ratio [7] [s⁻¹ M⁻¹] | inhibition [8] | Compound | Vmax [9] [mM/min] | Km [10] [µM] |
| --- | --- | --- | --- | --- | --- | --- | --- | --- | --- | --- |
| 10.7 | – | – | – | – | – | – | – | COC(=O)[C@@H](N)[C@@H]1CC(Br)=NO1 | – | – |
| 0.34 | 7.8 | 25 | inactive | 6.3 | 142 | 59.9 | Active | COc1ccc(C2CC(Br)=NO2)cc1 (stereo unspecified) | – | – |
| – | – | – | – | – | – | – | – | Glyceraldehyde-3-phosphate dehydrogenase (Homo sapiens), P04406 | 0.051 | 299 |
